Assays:
[1] = system: SH-SY5Y cells with Tet-Off conditional expression of β23; test: Trypan blue exclusion cell viability assay, Tet-Off β23 expression; assay type: cell-based; conditions: for effect on β23-induced cytotoxicity: 1 μM, 24 h; for EC50: Homo sapiens, Tet-Off β23, trypan blue exclusion, read-out: median effective concentration, cytoprotection against β23 toxicity; for cytotoxicity of the compound at high concentrations: up to 4 µM
Experimental: Figure 1 Peucedanocoumarin IV (PCiv) inhibits β23 aggregations and cytotoxicity in SH-SY5Y cells. (A) Scheme showing the detailed experimental steps in the organic synthesis of racemic PCiv and racemic PCiii (rac-PCiii, and rac-PCiv). Both PCiii and PCiv used in this study are racemic forms. (B) Trypan blue exclusion cell viability assessment in SH-SY5Y cells with Tet-Off-induced β23 expressions. β23 was expressed for 24 h using the Tet-off system. Further expression of β23 was halted by doxycycline (Dox) treatment with simultaneous treatment of the PCiii, PCiv, or their synthetic intermediate, trans-khellatone (t-khellatone, 1 μM 24 h). Cell viability was assessed 24 h after doxycycline treatment (n = 5 per group). (C) Synthetic PCiv’s protective effect on Tet-Off-expressed β23 toxicity in SH-SY5Y cells compared with peucedanocoumarin III (PCiii) determined by trypan blue exclusion assay. (D) The degradation of β23 monitored by Western blot at 37 h after doxycycline (200 ng/mL) treatment. The representative Western blot image of HA (β23) in SH-SY5Y cells treated with synthetic PCiii, synthetic PCiv (1 μM, 37 h), or DMSO as a vehicle. (E) Quantification of HA (β23) expression in SH-SY5Y cells from the indicated experimental groups in panel D (n = 3 experiments per group). (F) Representative immunofluorescence of steady state HA (β23) expression in SH-SY5Y cells expressing Tet-Off regulatable reporter mCherry and HA-tagged β23. HA-β23 was expressed for 24 h using the Tet-off system. Further expression of β23 was halted by Dox treatment in the presence of PCiii or PCiv (1 μM, 37 h). (G) Quantification of HA (β23) immunofluorescence signal in mCherry positive SH-SY5Y cells in each experimental group (n = 32 cells from three separate experiments per group). The data are expressed as means ± SEMs. * p < 0.05, ** p < 0.01, *** p < 0.001, and **** p < 0.0001, ANOVA test followed by Tukey’s post hoc analysis. Two-way ANOVA was used in panel C.
Human neuroblastoma SH-SY5Y cells (ATCC, Manassas, VA, USA) were grown in complete media containing DMEMs, 10% fetal bovine serum (vol/vol), and antibiotics (penicillin-streptomycin 100 U/mL, Thermo Fisher Scientific, Waltham, MA, USA). The atmospheric condition used to preserve the cells consisted of 5% CO2/95% air at 37 °C and maintained a humidified environment. X-tremeGENE HP transfection reagents (Roche, Basel, Switzerland) were used for transient transfection of DNA constructs (pCMV-tTA, TetP-β23, and pTet-dual2 [5]) following the manufacturer’s instructions.
SH-SY5Y cells were plated in 12-well plates at a density of 0.2 × 10^6 cells per well. Following transient transfection with the indicated constructs and subsequent treatment protocol, the cells were harvested by trypsinization, thereby yielding single-cell suspensions. The cells were washed twice with phosphate-buffered saline (PBS) and resuspended in serum-free DMEM. The resuspended cells were mixed with an equal volume of 0.4% trypan blue (w/v) and incubated for 2 min at room temperature. Live and dead cells were counted using a Countess II Automated Cell Counter (Life Technologies, Carlsbad, CA, USA) for assessing cell viability.

[2] = system: α-synuclein PFF-treated mice cortical neurons; test: PFF-induced α-synucleinopathy in primary cortical neurons, immunofluorescence; assay type: cell-based, mouse; conditions: for endogenous α-synuclein expression: PBS- or PFF-treated mouse cortical neurons
Experimental: (§1) Figure 2 PCiv prevents α-synuclein aggregation in vitro and in cultured neurons with PFF treatment. (A) Representative Western blots showing the degree of recombinant α-synuclein (αSyn) aggregation in a test tube in the presence or absence of PCiv (100 μM) at the indicated incubation duration (phosphate-buffered saline [PBS], 37 °C for 3 or 5 days). Aggregation of α-synuclein was determined using α-synuclein antibody. (B) Quantification of the relative amount of α-synuclein aggregate in high molecular weight sizes in panel A (n = 3 per group). (C) Representative immunofluorescence of MAP2 and Lewy-like inclusion marker pS129-αSyn in mice cortical neurons treated with α-synuclein preformed fibril (PFF) (1 μg, for 14 days). To evaluate the protective effects of PCiv as compared with PCiii, these compounds were treated (1 μM every 2 days for 14 days) following the PFF treatment. (D) Quantification of pS129-αSyn immunofluorescence signal intensities in MAP2-positive cortical neurons in each experimental group (n = 15 cells from three separate experiments). (E) Cell viability assessment in the indicated experimental groups was monitored by CCK-8 assay (n = 3 per group). The data are expressed as means ± SEMs. * p < 0.05, ** p < 0.01, *** p < 0.001, and **** p < 0.0001, ANOVA test followed by Tukey’s post hoc analysis.
CD1 mice were purchased from Orient Co. for use in the mouse primary neuron culture. E14 embryos from CD1 mice were dissected for primary cortical neurons in Neurobasal A medium (Gibco, Thermo Fisher Scientific Inc., Waltham, MA, USA) supplemented with B-27 (Gibco, Thermo Fisher Scientific Inc., Waltham, MA, USA) and 1 mM L-glutamine. Next, the primary cortical neurons were maintained in a poly L-lysine-coated tissue culture plate, and the medium was changed every 2–3 days. After 7 days, PFF was added to the cortical neurons and incubated for 14 days to observe the p-S129-α-synuclein signal which was used for immunofluorescence analysis. […] The optical value was read at 450 nm using a multi-detection microplate reader (Synergy, BioTek Instruments Inc., Winooski, VT, USA). […]
(A) Representative Western blots showing the degree of recombinant α-synuclein (αSyn) aggregation in a test tube in the presence or absence of t-Khellatone, PCiii, and PCiv (100 μM) at 0 and 5 days of incubation (phosphate-buffered saline [PBS], 37 °C for 5 days). Aggregation of α-synuclein was determined using α- synuclein antibody. (B) Quantification of relative amount of α-synuclein aggregate in high molecular weight sizes in panel A (n = 3 per group). […] (D) Quantification of filament conformation-αSyn (Filament) immunofluorescence signal intensities in MAP2 -positive cortical neurons in each experimental group (n = 15 cells from three separate experiments). […]

[3] = system: α-synuclein PFF-treated mice cortical neurons; test: PFF-induced neurotoxicity in cortical neurons, CCK-8 assay; assay type: cell-based, mouse; conditions: CCK-8, 14 days PFF, 1 μM every 2 days
Experimental: as §1, with “To evaluate the protective effects of PCiv as compared with PCiii, these compounds were treated (1 μM every 2 days for 14 days) following the PFF treatment.” left out
CD1 mice were purchased from Orient Co. for use in the mouse primary neuron culture. […] The optical value was read at 450 nm using a multi-detection microplate reader (Synergy, BioTek Instruments Inc., Winooski, VT, USA).

[4] = 1 μM every 2 days for 14 days, PFF 1 μg

SMILES: C/C=C(\C)C(=O)O[C@H]1[C@H](OC(C)=O)c2c(ccc3ccc(=O)oc23)OC1(C)C (relative stereo) [PCiv, trans-4′-acetyl-3′-tigloylkhellactone]
- effect on β23-induced cytotoxicity [1]: nearly equivalent cytoprotective biological function
- EC50 [1]: 204 nM
- cytotoxicity of the compound at high concentrations [1]: no obvious cytotoxicity
- PFF-induced elevation of filament conformation-αSyn signal [2, 4]: mitigated
- PFF-induced elevation of pS129-αSyn signal [2, 4]: mitigated
- endogenous α-synuclein expression [2]: not affected
- PFF-induced neurotoxicity (neuron viability) [3]: prevented

SMILES: C/C=C(\C)C(=O)O[C@@H]1c2c(ccc3ccc(=O)oc23)OC(C)(C)[C@H]1OC(C)=O (relative stereo) [PCiii, peucedanocoumarin III]
- effect on β23-induced cytotoxicity [1]: potently prevented
- EC50 [1]: 318 nM
- cytotoxicity of the compound at high concentrations [1]: no obvious cytotoxicity
- endogenous α-synuclein expression [2]: not affected
- PFF-induced neurotoxicity (neuron viability) [3]: prevented

— publication PMC9369442, “Synthetic Peucedanocoumarin IV Prevents α-Synuclein Neurotoxicity in an Animal Model of Parkinson’s Disease” (International Journal of Molecular Sciences, 2022)
